Reference: patent US20250276973A1, “CRYSTAL OF 7H-PYRROLO[2,3-D]PYRIMIDINE-4-AMINE DERIVATIVE” (TAIHO PHARMACEUTICAL CO., LTD., priority 2022, published 2025)

How the values were obtained:
[1] = Dynamic vapor sorption (DVS) test; format: physicochemical; settings: 25° C.; for Hygroscopicity (result in words): 5 to 95% RH; for Reversibility of water adsorption when the humidity was decreased: decrease from 95% to 5% RH
Description: Vapor sorption tests were performed using the type II crystal of Compound (1) in free form, the type III crystal of Compound (1) in free form, the type VII crystal of Compound (1) in free form, and the type VIII crystal of Compound (1) in free form obtained in the examples, reference example, and comparative example.
Vapor sorption tests were conducted under the following conditions.
Approximately 10 mg of the sample was filled into a specialized quartz holder to continuously measure and record the weight of the sample at each humidity was under the following conditions. The instrument, including data processing, was handled in accordance with the method and procedure indicated for each instrument. • Instrument: VTI-SA+(manufactured by TA Instruments) • Drying temperature: 60° C. • Heating rate: 1° C./min • Equilibration of drying: Confirmation of no more than 0.01 wt % decrease in 5 minutes within a period not exceeding 300 minutes • Measurement temperature: 25° C. • Equilibration of humidification: Confirmation of no more than 0.01 wt % increase in 5 minutes within a period not exceeding 120 minutes • Relative humidity program: Increase from 5 to 95% RH in increments of 5% RH, and decrease from 95% to 5% RH in increments of 5% RH. • Changes in the weight over the range of the measurement conditions obtained in these tests are shown in FIGS. 9 through 12.
Vapor sorption tests were performed using the type III crystal of Compound (1) with succinic acid, the type I crystal of Compound (1) with citric acid, the type IV crystal of Compound (1) with citric acid, the type I crystal of Compound (1) with sorbic acid, and the type I crystal of Compound (1) with phosphoric acid obtained in the examples, reference example, and comparative examples.
Vapor sorption tests were conducted under the same conditions as in Test Example 2.

[2] = Solid stability test (4 weeks of storage at 80° C., closed system; HPLC); format: physicochemical; settings: for Chemical purity after 4 weeks of storage at 80° C. / Solid stability (result in words): 80° C. (closed system), 4 weeks; for Chemical purity after 4 weeks of storage at 80° C.: glass bottle; for Chemical purity after 4 weeks of storage at 80° C. / Chemical purity before storage: HPLC; for Solid stability (result in words): related substances by HPLC; for Change (chemical purity): after 4 weeks at 80° C. versus before storage; for Chemical purity before storage: UV 220
Description: The solid stability of the type II crystal of Compound (1) in free form, the type III crystal of Compound (1) in free form, the type VII crystal of Compound (1) in free form, and the type VIII crystal of Compound (1) in free form obtained in the examples, reference example, and comparative example were evaluated after 4 weeks of storage by the following procedure. • Storage conditions: 80° C. (closed system) (HIFLEX (high-temperature storage chamber manufactured by ETAC)) • Storage period: 4 weeks • Storage volume: Approximately 30 mg • Storage container: Glass bottle
Changes in the mass of the related substances (the amounts of detected substances other than Compound (1)) were analyzed by HPLC according to the following method. Approximately 8 mg of each sample was weighed and dissolved in I mL of a chloroform-methanol mixture (1:1 v/v). Fifty μL of this solution was measured and diluted with 950 μL of an acetonitrile-water mixture (7:3), and 5 μL of the resulting solution was accurately measured and used as the sample for the analysis.
The mass of the related substances in the sample solution was determined by HPLC analysis. The instrument, including data processing, was handled in accordance with the method and procedure indicated for each instrument. • Column: InertSustainSwift C18 (2.1×50 mm, 1.9 μm) manufactured by GL Sciences • UV detection: […] • Column temperature: 40° C. • Flow rate: 0.3 mL/min • Sample cooler: 10° C. • Sample concentration: 0.1 mg/mL • Mobile phase A: 10 mmol/L phosphate buffer (pH 6.8)/acetonitrile (95:5) mixture • Mobile phase B: Acetonitrile • The gradients are shown in Table 4.
The solid stability of the type III crystal of Compound (1) with succinic acid, the type I crystal of Compound (1) with citric acid, the type IV crystal of Compound (1) with citric acid, the type I crystal of Compound (1) with sorbic acid, and the type I crystal of Compound (1) with phosphoric acid obtained in the examples, reference example, and comparative examples were evaluated after 4 weeks of storage. The evaluation method, storage, and measurement conditions were as described in Test Example 1.

[3] = listed as Type II crystal in free form
[4] = listed as type III crystal of Compound (1) in free form

SMILES	Hygroscopicity (result in words) [1]	Chemical purity after 4 weeks of storage at 80° C. [2] [%]	Change (chemical purity) [2]	Chemical purity before storage [2] [%]	Weight increase under 95% relative humidity ([1]; 95% RH) [%]	Chemical purity after 4 weeks of storage at 80° C. [2, 3] [%]	Change (chemical purity) [2, 3] [%]	Chemical purity before storage [2, 3] [%]	Reversibility of water adsorption when the humidity was decreased [1]	Reversibility of water adsorption when the humidity was decreased [1, 4]	Solid stability (result in words) [2]	Hygroscopicity (result in words) [1, 4]	Solid stability (result in words) [2, 4]	Solid stability (result in words) ([2]; listed as type VII crystal of Compound (1) in free form)
C#Cc1c(-c2cnc3ccccc3c2)c2c(N)ncnc2n1C12CCC(NC(=O)c3cnc(C)cn3)(CC1)C2 [Type I crystal of Compound (1) with phosphoric acid] [N-(4-(4-amino-6-ethynyl-5-(quinolin-3-yl)-7H-pyrrolo[2,3-d]pyrimidin-7-yl)bicyclo[2.2.1]heptan-1-yl)-5-methylpyrazine-2-carboxamide]	highly hygroscopic	99.50	−0.40%	99.90	–	–	–	–	–	–	unstable crystals with decreases in purity	–	–	–
C#Cc1c(-c2cnc3ccccc3c2)c2c(N)ncnc2n1C12CCC(NC(=O)c3cnc(C)cn3)(CC1)C2 [Type II crystal of Compound (1) in free form] [N-(4-(4-amino-6-ethynyl-5-(quinolin-3-yl)-7H-pyrrolo[2,3-d]pyrimidin-7-yl)bicyclo[2.2.1]heptan-1-yl)-5-methylpyrazine-2-carboxamide]	hardly hygroscopic	–	–	–	0.16	99.78	−0.02	99.80	–	–	extremely stable crystals with almost no increase in the related substances	–	–	–
C#Cc1c(-c2cnc3ccccc3c2)c2c(N)ncnc2n1C12CCC(NC(=O)c3cnc(C)cn3)(CC1)C2 [Type I crystal of Compound (1) with citric acid] [N-(4-(4-amino-6-ethynyl-5-(quinolin-3-yl)-7H-pyrrolo[2,3-d]pyrimidin-7-yl)bicyclo[2.2.1]heptan-1-yl)-5-methylpyrazine-2-carboxamide]	highly hygroscopic	99.03	−0.72%	99.75	–	–	–	–	–	–	unstable crystals with decreases in purity	–	–	–
C#Cc1c(-c2cnc3ccccc3c2)c2c(N)ncnc2n1C12CCC(NC(=O)c3cnc(C)cn3)(CC1)C2 [Type III crystal in free form, N-(4-(4-amino-6-ethynyl-5-(quinolin-3-yl)-7H-pyrrolo[2,3-d]pyrimidin-7-yl)bicyclo[2.2.1]heptan-1-yl)-5-methylpyrazine-2-carboxamide]	low hygroscopicity as long as RH is less than 65%	99.60	+0.02%	99.58	–	–	–	–	–	reversible	–	hygroscopicity that sharply increased at above 65% RH	extremely stable crystals with almost no increase in the related substances	–
C#Cc1c(-c2cnc3ccccc3c2)c2c(N)ncnc2n1C12CCC(NC(=O)c3cnc(C)cn3)(CC1)C2 [Type VII crystal in free form, N-(4-(4-amino-6-ethynyl-5-(quinolin-3-yl)-7H-pyrrolo[2,3-d]pyrimidin-7-yl)bicyclo[2.2.1]heptan-1-yl)-5-methylpyrazine-2-carboxamide]	highly hygroscopic	99.63	–	99.63	–	–	–	–	irreversible	–	–	–	–	extremely stable crystals with almost no increase in the related substances

Continued, in another order:

Hygroscopicity (result in words) [1]	Chemical purity after 4 weeks of storage at 80° C. [2] [%]	Change (chemical purity) [2]	Chemical purity before storage [2] [%]	Weight increase under 95% relative humidity ([1]; 95% RH) [%]	Chemical purity after 4 weeks of storage at 80° C. [2, 3] [%]	Change (chemical purity) [2, 3] [%]	Chemical purity before storage [2, 3] [%]	Reversibility of water adsorption when the humidity was decreased [1]	Reversibility of water adsorption when the humidity was decreased [1, 4]	SMILES	Solid stability (result in words) [2]	Hygroscopicity (result in words) [1, 4]	Solid stability (result in words) [2, 4]	Solid stability (result in words) ([2]; listed as type VII crystal of Compound (1) in free form)
highly hygroscopic	99.43	−0.19%	99.62	–	–	–	–	irreversible	–	C#Cc1c(-c2cnc3ccccc3c2)c2c(N)ncnc2n1C12CCC(NC(=O)c3cnc(C)cn3)(CC1)C2 [Type VIII crystal in free form, N-(4-(4-amino-6-ethynyl-5-(quinolin-3-yl)-7H-pyrrolo[2,3-d]pyrimidin-7-yl)bicyclo[2.2.1]heptan-1-yl)-5-methylpyrazine-2-carboxamide]	–	–	–	–
highly hygroscopic	93.49	−6.42%	99.91	–	–	–	–	–	–	C#Cc1c(-c2cnc3ccccc3c2)c2c(N)ncnc2n1C12CCC(NC(=O)c3cnc(C)cn3)(CC1)C2 [Type IV crystal of Compound (1) with citric acid] [N-(4-(4-amino-6-ethynyl-5-(quinolin-3-yl)-7H-pyrrolo[2,3-d]pyrimidin-7-yl)bicyclo[2.2.1]heptan-1-yl)-5-methylpyrazine-2-carboxamide]	unstable crystals with decreases in purity	–	–	–
